Numbered stars: 1 amine (or outer) side, 2 acyl side, 3 side chain; on linkers, the order of the positions; unused ones are H or OH. Bridge positions count the residues as written; N and C are the ends. Square brackets hold non-standard residues; d marks the D form. Peptide text beside a SMILES is read from it. Phe(4-F) = N[C@@H](Cc1ccc(F)cc1)C(=O)O; X1 = CCCCCCC[C@H](N[*:1])C(=O)[*:2]; Nle = CCCC[C@H](N)C(=O)O; X2 = C(C[*:1])C[*:2]; βAla = NCCC(=O)O

Consider 1 compound from publication PMC9114382, “The K-Ras(G12D)-inhibitory peptide KS-58 suppresses growth of murine CT26 colorectal cancer cell-derived tumors” (Scientific Reports, 2022).

Data set [1] is described as follows: Stability in mouse liver microsomes. It is filed as in vitro ADME. The note with it: mouse hepatic microsomes (XenoTech), with NADP cofactor, 37 °C, 1 h incubation, LC-MS/MS, read-out: fraction of initial concentration remaining in mouse liver microsomes. The procedure: (§1) Experimental procedures that involved animals and their care were conducted in compliance with the Guide for the Care and Use of Laboratory Animals[15] and ARRIVE guidelines[16],[17]. Animal experiments were approved by the Animal Care and Use Committee of Osaka University (approval No. DouyakuR01-3–1) and conducted at Osaka University in accordance with the guidelines. LC–MS/MS data were obtained using a Xevo TQ-S mass spectroscopy system (Waters Corp., Milford, MA, USA) connected to an ACQUITY UPLC system (Waters) equipped with a BEH C18 column (1.7 μm, 2.1 × 50 mm, Waters). Mobile phase A was 0.1% formic acid in water and mobile phase B was 0.1% formic acid in acetonitrile. The gradient elution profile was 2% B at 0 min to 98% B at 1.8 min, and the flow rate was 0.5 mL/min.
(§2) For evaluation of stability, KS-58 was incubated with commercial hepatic microsomes (XenoTech Ltd, KS, USA) in X medium supplemented with nicotinamide adenine dinucleotide phosphate for 10 and 60 min at 37 °C. The fraction (%) remaining in the medium was determined using the LC–MS/MS system (Waters). We also examined the fraction (%) remaining in fresh mouse blood after 60 and 120 min of incubation at 37 °C using the same LC–MS/MS system.

For data set [2] the following is noted: estimated using RP-HPLC; cited from earlier work.
Data set [3] can be described thus: Stability in human liver microsomes. It is filed as in vitro ADME. As to conditions: human hepatic microsomes (XenoTech), with NADP cofactor, 37 °C, 1 h incubation, LC-MS/MS, read-out: fraction of initial concentration remaining in human liver microsomes. The procedure: as §1, §2
(In general: Microsomes from liver hold many membrane-bound enzymes, among them those of drug oxidation.)

Data set [4] in a line: Plasma protein binding (dialysis). Format: in vitro ADME. As to conditions: dialysis of plasma against PBS pH 7.4, 5 h, 37 °C, LC-MS/MS, human and mouse plasma (Fig. 4E). As for the experimental part:
as §1
For evaluation of plasma protein binding, the plasma compartment containing KS-58 was dialyzed against PBS (pH 7.4) for 5 h at 37 °C and the concentrations remaining in each compartment were quantified by LC–MS/MS.

The nature of data set [5]: Translocation to blood cells. It is filed as in vitro ADME. The note with it: whole blood (Fig. 4D).
The nature of data set [6]: Stability in mouse whole blood. Format: in vitro ADME. As to conditions: fresh whole blood, 37 °C, 2 h incubation, LC-MS/MS, read-out: fraction of initial concentration intact in whole blood. The procedure:
as §1, §2

The nature of data set [7]: Pharmacokinetics after intravenous injection. Format: in vivo, mouse. The note with it: 10 mg/kg i.v., LC-MS/MS. As for the experimental part:
as §1
For pharmacokinetics studies, KS-58 was dissolved in saline and administered intravenously to female BALB/c mice at 10 mg/kg. Serial blood samples (20 μL) were collected from the tail vein using heparinized tips at 7.5, 15, 30, 60, 120, 240, 320, and 1440 min after KS-58 administration. Aliquots (5 μL) of plasma obtained from each blood sample were treated with 50 μL acetonitrile and the organic layer was injected onto the LC–MS/MS system. Pharmacokinetic parameters were obtained by fitting the plasma concentration–time data to a noncompartmental model using PKPlus software (Northern Science Consulting Inc, Sapporo, Japan).

The nature of data set [8]: Systemic safety in CT26 tumor-bearing mice (body and organ weights, kidney and liver histomorphology). Format: in vivo, mouse. The procedure: Experimental procedures that involved animals and their care were conducted in compliance with the Guide for the Care and Use of Laboratory Animals[15] and ARRIVE guidelines[16],[17]. Animal experiments were approved by Animal Care and Use Committee of UNITECH Co. Ltd. (Kashiwa, Japan) (approval No. AGR IMF-210415A-30) and conducted at UNITECH in accordance with the guidelines. To establish subcutaneous allograft tumors, 1 × 10^6 CT26 cells/100 µL were subcutaneously injected into the left groin region of BALB/cCrSlc female mice (7 weeks old; Japan SLC, Inc., Shizuoka, Japan). Immediately before treatment, KS-58 was dissolved in DMSO and then diluted tenfold in normal saline. Tumor-baring mice in vehicle control, KS-58 (low), and KS-58 (high) groups were injected intravenously with vehicle (1:10 DMSO to saline, v/v), 10 mg/kg KS-58 solution, or 40 mg/kg KS-58 solution, respectively, once every 2 days for 17 days (n = 8 mice per major group, n = 3 mice per satellite group) (Fig. 1B). For anti-PD-1 monotherapy or combination treatment, GoInVivo Purified anti-mouse PD-1 (CD279, Cat.#114114, BioLegend, San Diego, CA, USA) was dissolved in PBS and injected intraperitoneally at 50 mg/kg on days 6, 8, and 10 (n = 8 mice in major groups, n = 3 in satellite groups). Tumor growth rate was recorded on day 1, 4, 8, 11, 15, and 17 by measuring the major and minor axes with a digital caliper. Measurements were transformed into tumor volumes using the formula tumor volume (mm^3) = major axis × minor axis^2 × 0.5. Tumors (with surrounding skin), liver, and kidneys were collected from satellite groups on day 15, fixed in formalin, and then maintained in 70% ethanol for histological analyses. Tumor, liver, and kidneys were collected from major groups on day 17 within 3 h of the last injection and weighed. The tumors were subsequently frozen in liquid nitrogen and stored at − 80 °C until homogenization for Western blotting.
Tumors, livers, and kidneys were harvested from mice and fixed with 10% neutral-buffered formalin. […]

Setting [9] is: satellite groups, day 15, HE staining, n = 3.

By half-life is commonly meant the time in which the quantity being followed falls by half. High values mean slow decline, low ones rapid decline. On to `CCCCCCC[C@@H]1NC(=O)[C@@H]2CSCCCSC[C@@H](NC(=O)[C@H](Cc3c[nH]c4ccccc34)NC(=O)[C@@H]3CCCN3C(=O)[C@H](CC(=O)O)NC(=O)[C@H](Cc3ccc(F)cc3)NC(=O)[C@H](CO)NC1=O)C(=O)NCCC(=O)N1CCC[C@H]1C(=O)N[C@@H](CCCC)C(=O)N2` [KS-58] (cyclo([βAla]P[Nle]C[X1]S[Phe(4-F)]DPW[dC]); linker 4-11 via X2), for which the remaining at 1 h in data set [1] amounted to 46.2%. In addition, the “half-life in whole blood” value in data set [2] is ~ 60 min. In addition, the remaining at 1 h in data set [3] came out at 77%. In addition, in data set [4], the “fraction bound to plasma proteins” value is given as “more than 90%”. The fraction unbound at 5 h in data set [4] (read-out: free fraction in plasma) is under 0.1. In data set [5], the “translocation into blood cells” value is “a substantial fraction of KS-58 was translocated into blood cells”. The remaining at 2 h in data set [6] came out at 92.3%. Moreover, in data set [7] (mice), the “time at which plasma concentration decreased to ~50% of the initial concentration” value is recorded as “about 30 min”. In data set [7] (mice, limit of detection ~250 nM), the “plasma concentration after 4 h” value was “below the limit of detection”. In data set [7] (mouse, iv, female BALB/c mice, plasma, noncompartmental, mean ± SD, n = 3), the half-life is about 30 min. The “body weight gain/loss and weights of liver and kidney vs vehicle controls” value in data set [8] (KS-58 10 or 40 mg/kg i.v. every 2 days for 17 days, n = 8) was “neither body weight gain/loss (Fig. 2B) nor the weights of liver and kidney (Fig. 2C) were significantly altered”. Besides, in data set [8] (setting [9]), the kidney histomorphology entry is listed as “No obvious histological changes in any of the nephron segments” and the liver histomorphology result is listed as “hepatocellular hypertrophy with cytoplasmic eosinophilic change”.
